# Tests used:
# Format in all cases: cell-based, human
# naïve hPSC = assay: hALEC differentiation in AP after capacitation in different conditions; conditions: 3 days capacitation in the named condition, then AP; for hALEC differentiation after capacitation condition: morphology and markers
# Experimental: (§1) FIGS. 3 (A to I). Signalling requirement for hALEC differentiation: FIG. 3(A) depicts experimental outline; naïve hPSC were capacitated in different conditions for 3 days (2uM XAV939 in N2B27 basal medium (“XAV939”), N2B27 basal medium only (“N2B27”), 1 uM A8301 in N2B27 basal medium (“A8301”), or medium E8 for culturing primed hPSCs (“E8”)), and then differentiated to hALEC in AP media. FIG. 3(B) is whole-well view of cells after hALEC induction stained with fluorescently labelled phalloidin. […] FIGS. 3(F) and (G) show images of cells stained with fluorescently labelled phalloidin and qRT-PCR results, respectively, of hALEC differentiated in the presence of alternative MAPK inhibitors (1 uM PD0325901, or 5 nM, 10 nM or 30 nM Trametinib). FIGS. 3(H) and (I) show images of cells stained with fluorescently labelled phalloidin and qRT-PCR results, respectively, for hALEC differentiated in the presence of alternative TGFb pathway inhibitors (1 uM A8301; 10 or 20 uM SB431542; 1 uM or 5 uM LY2109761; 5 uM or 10uM or 20 uM LY364947).
# WNT inhibition is beneficial but not essential for the formative transition of hPSC, which is rather guided by their autocrine signalling (Rostovskaya et al. Development 2019). We induced formative transition by the range of conditions: (1) WNT inhibitor XAV939 in N2B27 basal medium; (2) simple withdrawal of the factors (PD0325901, Go6983, XAV939, LIF) for naïve hPSC maintenance from the medium and culturing in basal N2B27 conditions; (3) TGFb inhibitor A8301 in N2B27 basal medium; (4) E8 medium containing TGFb and FGF2 for culturing primed hPSC (Chen et al. Nat Methods 2011); all for 3 days, and then applied AP conditions for differentiation (FIG. 3A). […] Therefore, the ability to form hALEC capable of self-assembly into spheroids, is an intrinsic property of hPSC that is established during capacitation, rather than a property that is acquired in response to exogenous WNT inhibition.
# [1] = test system: hPSC after 3-5 days of the capacitation; assay: Signalling requirement for hALEC formation (single, joint and alternative MAPK, TGFb, BMP inhibitors); conditions: for efficient formation of 3D bubble-like epithelial structures and upregulation of amnion markers: A8301 only, PD03 only or both (AP); for induction of hALEC by alternative MAPK or TGFb pathway inhibitor: Trametinib 5, 10 or 30 nM, SB431542 10 or 20 uM, LY2109761 1 or 5 uM, LY364947 5, 10 or 20 uM
# Experimental: as §1
# We next assessed whether the joint inhibition of the TGFb/Activin/Nodal and MAPK pathways is required for the formation of hALEC. We tested this using hPSC after 3-5 days of the capacitation in independent experiments by supplementing their media with either A8301 only (“A”), PD03 only (“P”), neither of the inhibitors (“none”), or both (“AP”).
# Therefore, hALEC differentiation is induced specifically by inhibition of MAPK and TGFb pathways and not by other effects of PD0325901 and A8301.
# The formation of cells expressing a subset of amnion markers has been previously reported after treating conventional primed hPSC with the growth factor BMP4 (Shao et al. Nat Mater 2017; Shao et al. Nat Commun 2017; Zheng et al. Nature 2019). However, this finding is at odds with the timing of events that occur during embryo development. In particular, primed hPSC closely resemble late post-implantation epiblast cells just prior to the onset of gastrulation (Nakamura et al. Nature 2016), a developmental stage that occurs in humans at around 11-12dpf (Carnegie stage, CS, 5c), which is several days after the emergence of the amnion in the implanting embryo at 7dpf (CS 5a) (The Virtual Human Embryo Atlas). Therefore, BMP-dependent route of differentiation reported in the aforementioned works can’t explain the mechanism of formation of amnion and amniotic cavity in primate embryos. Nevertheless, we tested whether BMP signalling was required for hALEC differentiation by adding a selective BMP receptor (ALK-2, -3, -6) inhibitor called LDN193189 to the AP-containing media (a combination referred to as “DAP” hereafter).
# [2] = test system: hPSC at different stages of capacitation; assay: Competence window for hALEC differentiation during capacitation (AP or DAP); conditions: hPSC capacitated 8 days, AP medium plus BMP inhibitor
# Description: FIGS. 4 (A to G). A competence window for hALEC differentiation during the formative transition: FIG. 4(A) depicts the experimental outline. hPSC (HNES1 line) were capacitated in XAV939 and analysed for their ability to form hALEC each day of capacitation, by treatment with AP of DAP for 4 days. […] FIG. 4(D) is a qRT-PCR for markers in hALEC differentiated using AP medium after various length of capacitation. FIG. 4(E) depicts the immunofluorescence for markers (OCT4, CDX2 and E-cadherin) during the time course of hALEC differentiation using naïve and partially capacitated HNES1. […] FIG. 4(G) is the flow cytometry analysis.
# To identify a window during the progression from naïve to primed pluripotency where hPSC have the competence to form amnion, we systematically tested the ability of hPSC at different stages of capacitation to respond to hALEC-inducing cues (FIG. 4A). In these experiments, hALEC differentiation was induced using two alternative media compositions – AP and DAP – in order to assess whether the requirement for BMP pathway activity is altered this window of competence. […] The efficiency of hALEC formation was evaluated visually by their efficiency to form 3D epithelial spheres (FIGS. 4B and 4C), and markers expression (FIG. 4D). […]
structure (smiles),measurement,setting,value
Cc1cccc(-c2nn(C(=S)Nc3ccccc3)cc2-c2ccnc3ccccc23)n1 [A8301],efficiency of hALEC differentiation after capacitation condition,naïve hPSC,consistently high
same,hALEC differentiation after capacitation condition,naïve hPSC,successfully differentiated to hALEC
same,efficient formation of 3D bubble-like epithelial structures and upregulation of amnion markers,[1],Only the cells treated by both inhibitors were able to efficiently form
COc1cc(-c2cc(-c3cccc(O)c3)cnc2N)cc(OC)c1OC [K02288],extension of the window of competence by alternative BMP inhibitor,[2],extension of the window of competence was observed
c1ccc2c(-c3cnn4cc(-c5ccc(N6CCNCC6)cc5)cnc34)ccnc2c1 [LDN193189],effect of blocking BMP signalling on hALEC differentiation,[1]; added to AP-containing media (DAP),did not interfere with hALEC differentiation
c1ccc(-c2[nH]ncc2-c2ccnc3ccccc23)nc1 [LY364947],induction of hALEC by alternative MAPK or TGFb pathway inhibitor,[1],successful induction of hALEC
c1ccc(-c2nn3c(c2-c2ccnc4cc(OCCN5CCOCC5)ccc24)CCC3)nc1 [LY2109761],induction of hALEC by alternative MAPK or TGFb pathway inhibitor,[1],successful induction of hALEC
O=C(NOC[C@H](O)CO)c1ccc(F)c(F)c1Nc1ccc(I)cc1F [PD03],efficient formation of 3D bubble-like epithelial structures and upregulation of amnion markers,[1],Only the cells treated by both inhibitors were able to efficiently form
NC(=O)c1ccc(-c2nc(-c3ccc4c(c3)OCO4)c(-c3ccccn3)[nH]2)cc1 [SB431542],induction of hALEC by alternative MAPK or TGFb pathway inhibitor,[1],successful induction of hALEC
Oc1nc(-c2ccc(C(F)(F)F)cc2)nc2c1CSCC2 [XAV939],efficiency of hALEC differentiation after capacitation condition,naïve hPSC,consistently high
same,hALEC differentiation after capacitation condition,naïve hPSC,successfully differentiated to hALEC
